These results are taken from PubChem BioAssay (NCI).

Among the test systems are SF-295 CNS; OVCAR-4 ovarian; HT29 colon; UO-31 renal; MOLT-4 leukemia; SR leukemia; HCT-15 colon; SN12C renal; ACHN renal; HCT-116 colon.
Holding throughout (assay): inhibition of tumour cell growth, NCI panel, 48 h

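Tested at 5 concentrations; 48 h exposure; 96-well plates; endpoints linearly interpolated, else capped at highest concentration. TGI: total growth inhibition.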 Where only a bound is given, the exact number is not on record here.

On to `O=C(Nc1cccc([N+](=O)[O-])c1)C(=O)C(C(=O)c1ccccc1F)C1OC(=O)C2C=CC=CC21` (configuration not stated), for which the TGI is over 100 µM in the assay with SF-295 CNS; over 100 µM with OVCAR-4 ovarian; over 100 µM in the assay with HT29 colon; over 100 µM in the assay on UO-31 renal; over 100 µM in the assay with MOLT-4 leukemia; 84.7 µM in the assay with SR leukemia. Moreover, the TGI with HCT-15 colon is over 100 µM; with SN12C renal, over 100 µM; in the assay on ACHN renal it was over 100 µM; in the assay with HCT-116 colon, 48.3 µM.
As to `C/C=C1/CN2CCC34c5ccccc5N(C)C23C2CC1C4(C(=O)OC)C(O)O2` (configuration not stated), the TGI with SF-295 CNS, in the assay with OVCAR-4 ovarian, in the assay with HT29 colon, with UO-31 renal, in the assay with MOLT-4 leukemia and in the assay with HCT-15 colon was over 100 µM throughout. The TGI in the assay on SN12C renal, with ACHN renal and in the assay with HCT-116 colon was over 100 µM throughout.
`NC(=O)Nc1ccc(C(=O)NCCCNC(=O)c2ccc(NC(N)=O)cc2)cc1`: the TGI in the assay with OVCAR-4 ovarian, in the assay with HT29 colon, in the assay on UO-31 renal, in the assay with MOLT-4 leukemia, in the assay with SR leukemia and in the assay with HCT-15 colon was over 100 µM each time. The TGI with ACHN renal and with HCT-116 colon was over 100 µM in each case.
Take `Cc1c(NC(=O)c2cc([N+](=O)[O-])cc([N+](=O)[O-])c2)c(=O)n(-c2ccccc2)n1C`: the TGI in the assay on OVCAR-4 ovarian, with HT29 colon, with UO-31 renal, in the assay on MOLT-4 leukemia, in the assay on SR leukemia and in the assay on HCT-15 colon was over 100 µM throughout. Besides, the TGI in the assay with SN12C renal and with HCT-116 colon was over 100 µM in each case.
Regarding `O=C(Nc1sccc1S(=O)(=O)c1ccc(Cl)cc1)c1ccccc1`, the TGI in the assay on SF-295 CNS, in the assay on OVCAR-4 ovarian, in the assay with HT29 colon, in the assay with UO-31 renal, in the assay with MOLT-4 leukemia and with SR leukemia was over 100 µM in each case. Further, the TGI in the assay on HCT-15 colon, in the assay on SN12C renal, in the assay on ACHN renal and with HCT-116 colon was over 100 µM in each case.
Regarding `c1ccc(CCN2CCOCC2)nc1`, the TGI in the assay on SF-295 CNS, in the assay with OVCAR-4 ovarian, with HT29 colon, with UO-31 renal, in the assay on SR leukemia and with HCT-15 colon was over 100 µM in each case. Moreover, the TGI in the assay on SN12C renal, in the assay with ACHN renal and in the assay with HCT-116 colon was over 100 µM in each case.
`Nc1cccc2c1C1=NNC(=O)CC1C2` (configuration not stated): the TGI was over 100 µM with SF-295 CNS; over 100 µM in the assay with OVCAR-4 ovarian; over 22.9 µM with HT29 colon; over 100 µM in the assay on UO-31 renal; over 100 µM with MOLT-4 leukemia; over 100 µM in the assay with HCT-15 colon. Also, the TGI with SN12C renal and with HCT-116 colon was over 100 µM throughout.
Consider `O=C1C(c2c(O)[nH]c3ccccc23)=Nc2ccc(Br)cc21`, for which the TGI with SF-295 CNS is 89.6 µM; in the assay on OVCAR-4 ovarian it was 69.5 µM; in the assay on HT29 colon, over 100 µM; in the assay with UO-31 renal it was 70.7 µM; in the assay on MOLT-4 leukemia, 40.8 µM; in the assay with SR leukemia, over 100 µM. For the same compound, the TGI is over 100 µM with HCT-15 colon, over 100 µM in the assay with SN12C renal, 77 µM in the assay on ACHN renal and over 100 µM in the assay with HCT-116 colon.
For the compound `CC(=O)N1CC(=O)NC1=S`, the TGI in the assay on SF-295 CNS, in the assay with OVCAR-4 ovarian, in the assay on HT29 colon, with UO-31 renal, with MOLT-4 leukemia and with SR leukemia was over 100 µM throughout. Moreover, the TGI in the assay on HCT-15 colon, in the assay on SN12C renal, in the assay with ACHN renal and with HCT-116 colon was over 100 µM throughout.
As for `Cc1ccc([N+](=O)[O-])cc1S(=O)(=O)Nc1ccc(C2=NN(C(=O)c3ccccc3)C(c3cccs3)C2)cc1` (configuration not stated), the TGI in the assay with SF-295 CNS, in the assay with OVCAR-4 ovarian, in the assay on HT29 colon, with UO-31 renal, in the assay with MOLT-4 leukemia and in the assay on SR leukemia was over 100 µM throughout. The TGI in the assay on HCT-15 colon was over 100 µM; in the assay on SN12C renal, 66.3 µM; with ACHN renal it was over 100 µM; in the assay with HCT-116 colon, over 100 µM.
As for `COc1c(O)c(O)c2c(c1O)C(=O)c1cc(C)cc(O)c1C2=O`, the TGI in the assay with SF-295 CNS is over 69.7 µM; in the assay with OVCAR-4 ovarian, over 89.1 µM; in the assay on HT29 colon, over 85.4 µM; in the assay on UO-31 renal, over 100 µM; in the assay with MOLT-4 leukemia, over 100 µM; in the assay with SR leukemia, over 100 µM. The TGI in the assay with HCT-15 colon, in the assay with SN12C renal, in the assay on ACHN renal and in the assay with HCT-116 colon was over 100 µM in each case.
`N#CCCOCN(CO)c1nc(N(CO)COCCC#N)nc(N(CO)COCCC#N)n1`: the TGI in the assay on SF-295 CNS was found to be 43.7 µM; with OVCAR-4 ovarian, 64 µM; in the assay on HT29 colon it was 69.9 µM; with UO-31 renal it was 43.2 µM; with MOLT-4 leukemia, 50.7 µM; with SR leukemia, 41.7 µM. In addition, the TGI came to 37.3 µM in the assay on HCT-15 colon, 44.2 µM with SN12C renal, 76.1 µM with ACHN renal and 63.8 µM in the assay with HCT-116 colon.
On to `CCOC(=O)C(=O)Nc1c(CC)cccc1C(C)CC` (configuration not stated), for which the TGI with SF-295 CNS, with OVCAR-4 ovarian, in the assay with HT29 colon, in the assay on UO-31 renal, with MOLT-4 leukemia and with SR leukemia was over 100 µM in each case. For the same compound, the TGI in the assay on HCT-15 colon, with SN12C renal, with ACHN renal and in the assay with HCT-116 colon was over 100 µM each time.
In the case of `Cc1nc2c(O)cc3c4c(n(Cc5ccccc5)c3c2nc1C)C(=O)CCC4`, the TGI in the assay on SF-295 CNS was over 100 µM; in the assay with OVCAR-4 ovarian it was 59.3 µM; in the assay with HT29 colon it was over 100 µM; in the assay on UO-31 renal, over 100 µM; in the assay with MOLT-4 leukemia, over 100 µM; in the assay with SR leukemia it was over 100 µM. In addition, the TGI in the assay with HCT-15 colon, in the assay on SN12C renal, in the assay with ACHN renal and in the assay with HCT-116 colon was over 100 µM each time.
